Test results: patent publication US20100311714A1, “1H-IMIDAZO[4,5-c]QUINOLINONE COMPOUNDS” (priority 2009, published 2010)

Tests used:
PI3K alfa = biological target: T1, PI3K alfa (Homo sapiens, UniProt P42336); experiment: PI3K alpha kinase assay (Kinase-Glo luminescence); format: biochemical; details: read-out: EPK_PI3Kalfa/IC50
T1 construct: His tag (C); made in house; host or cells: baculovirus BV1075; Tn5 (Trichoplusia ni) or TiniPro insect cells
Protocol: (§1) In a more preferred assay, the kinase reaction is performed in a final volume of 10 μL per well of a low volume non binding CORNING, 384 well black plate (Cat. No. #3676). The final concentrations of ATP and phosphatidyl inositol (PI) in the assay are 1 μM and 10 μg/mL respectively. The reaction is started by the addition of ATP.
(§2) The components of the assay are added per well as follows:
(§3) 50 nL test compounds in 90% DMSO per well, in columns 1-20, 8 concentrations (⅓ and 1/3.33 serial dilution step) in single. • Low control: […] of 90% DMSO in half the wells of columns 23-24 (0.45% in final). • High control: 50 nL of reference compound (e.g. compound of Example 7 in WO 2006/122806) in the other half of columns 23-24 (2.5 μM in final). • Standard: 50 nL of reference compound as just mentioned diluted as the test compounds in columns 21-22 • 20 mL ‘buffer’ are prepared per assay: • 200 μL of 1M TRIS HCl pH7.5 (10 mM in final) • 60 μL of 1M MgCl2 (3 mM in final) • 500 μL of 2M NaCl (50 mM in final) • 100 μL of 10% CHAPS (0.05% in final) • 200 μL of 100 mM DTT (1 mM in final) • 18.94 mL of nanopure water • 10 mL ‘PI’ are prepared per assay: • 200 μL of 1 mg/ml L-alpha-Phosphatidylinositol (Liver Bovine, Avanti Polar Lipids Cat. No. 840042C MW=909.12) prepared in 3% OctylGlucoside (10 μg/ml in final) • 9.8 mL of ‘buffer’ • 10 mL ‘ATP’ are prepared per assay: • 6.7 μL of 3 mM stock of ATP giving a final concentration of 1 μM per well • 10 mL of ‘buffer’ • 2.5 mL of each PI3K construct are prepared per assay in ‘PI’ with the following final concentration: • 10 nM PI3K alfa EMV B1075 • 25 nM beta EMV BV949 • 10 nM delta EMV BV1060 • 150 nM gamma EMV BV950 • 5 μL of ‘PI/PI3K’ are added per well. • 5 μl ‘ATP’ are added per well to start the reaction. • The plates are then incubated at room temperature for 60 minutes (alfa, beta, delta) or 120 minutes (gamma). • The reaction is terminated by the addition of 10 μL Kinase-Glo (Promega Cat. No. #6714). • The assay plates are read after 10 minutes in Synergy 2 reader (BioTek, Vermont USA) with an integration time of 100 milliseconds and sensitivity set to 191. • Output: The High control is around 60′000 counts and the Low control is 30′000 or lower • This luminescence assay gives a useful Z′ ratio between 0.4 and 0.7
Two different constructs, BV 1052 and BV 1075, are used to generate the PI3 Kinase α proteins for compound screening.
PI3K alpha is purified in three chromatographic steps: immobilized metal affinity chromatography on a Ni Sepharose resin (GE Healthcare, belonging to General Electric Company, Fairfield, Conn., USA), gel filtration utilizing a Superdex 200 26/60 column (GE Healthcare), and finally a cation exchange step on a SP-XL column (GE Healthcare). All buffers are chilled to 4° C. and lysis is performed chilled on ice. Column fractionation is performed rapidly at room temperature.
(§4) IC50 is determined by a four parameter curve fitting routine that comes along with “excel fit”. A 4 Parameter logistic equation is used to calculate IC50 values (IDBS XLfit) of the percentage inhibition of each compound at 8 concentrations (usually 10, 3.0, 1.0, 0.3, 0.1, 0.030, 0.010 and 0.003 μM). Alternatively, IC50 values are calculated using idbsXLfit model 204, which is a 4 parameter logistic model.

PI3K delta = biological target: T2, PI3K delta (Homo sapiens, UniProt O00329); experiment: PI3K delta kinase assay (Kinase-Glo luminescence); format: biochemical; details: read-out: EPK_PI3Kdelta/IC50
T2 construct: for the full-length p110-d subunit are generated and fused by overlapping PCR; His tag (C); made in house; host or cells: baculovirus BV1060; Tn5 (Trichoplusia ni) or TiniPro insect cells
T2 sequence (O00329 with tags, fused parts or gaps limits assumed): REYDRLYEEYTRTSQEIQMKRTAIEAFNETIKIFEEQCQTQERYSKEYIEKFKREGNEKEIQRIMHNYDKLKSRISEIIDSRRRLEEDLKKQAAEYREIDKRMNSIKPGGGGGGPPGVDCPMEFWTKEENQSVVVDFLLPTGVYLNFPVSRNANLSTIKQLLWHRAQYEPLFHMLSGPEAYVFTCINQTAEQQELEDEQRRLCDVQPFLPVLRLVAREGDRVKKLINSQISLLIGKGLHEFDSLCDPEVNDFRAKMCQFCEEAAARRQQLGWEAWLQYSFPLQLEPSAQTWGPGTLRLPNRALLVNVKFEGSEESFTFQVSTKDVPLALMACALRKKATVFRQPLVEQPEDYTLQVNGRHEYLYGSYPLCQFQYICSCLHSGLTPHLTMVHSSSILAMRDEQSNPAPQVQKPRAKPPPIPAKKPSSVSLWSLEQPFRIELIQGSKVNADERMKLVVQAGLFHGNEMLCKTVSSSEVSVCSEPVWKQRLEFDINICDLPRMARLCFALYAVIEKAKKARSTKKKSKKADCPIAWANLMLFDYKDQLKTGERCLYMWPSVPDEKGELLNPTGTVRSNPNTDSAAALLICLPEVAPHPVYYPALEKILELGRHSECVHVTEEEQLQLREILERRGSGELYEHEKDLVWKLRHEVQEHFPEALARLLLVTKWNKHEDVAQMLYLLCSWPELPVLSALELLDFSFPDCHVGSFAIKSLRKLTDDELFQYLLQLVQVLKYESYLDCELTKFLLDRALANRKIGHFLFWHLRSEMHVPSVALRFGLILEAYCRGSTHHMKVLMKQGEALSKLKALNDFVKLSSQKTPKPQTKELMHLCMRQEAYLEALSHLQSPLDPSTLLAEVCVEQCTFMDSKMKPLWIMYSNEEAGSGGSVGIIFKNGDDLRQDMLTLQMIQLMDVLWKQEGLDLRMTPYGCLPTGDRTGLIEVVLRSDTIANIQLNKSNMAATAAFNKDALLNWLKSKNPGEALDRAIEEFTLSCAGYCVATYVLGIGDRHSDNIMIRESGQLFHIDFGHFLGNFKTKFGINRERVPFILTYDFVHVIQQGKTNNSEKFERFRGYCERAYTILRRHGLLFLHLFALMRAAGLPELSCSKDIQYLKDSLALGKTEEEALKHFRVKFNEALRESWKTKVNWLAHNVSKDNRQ
Protocol: as §1, §2, §3
PI3Kδ BV-1060 p85(iSH2)-Gly Linker-p110d(Full-Length)-C-Term His Tag
PI3K delta is purified in three chromatographic steps: immobilized metal affinity chromatography on a Ni Sepharose resin (GE Healthcare), gel filtration utilizing a Superdex 200 26/60 column (GE Healthcare), and finally a anion exchange step on a Q-HP column (GE Healthcare). All buffers are chilled to 4° C. and lysis is performed chilled on ice. Column fractionation is performed rapidly at room temperature. Typically frozen insect cells are lysed in a hypertonic lysis buffer and applied to a prepared IMAC column. The resin is washed with 3-5 column volumes of lysis buffer, followed by 3-5 column volumes wash buffer containing 45 mM imidazole, and the target protein is then eluted with a buffer containing 250 mM imidazole. Fractions are analyzed by Coomassie stained SDS-PAGE gels, and fractions containing the target protein are pooled and applied to a prepared GFC column. Fractions from the GFC column are analyzed by Coomassie stained SDS-PAGE gels, and fractions containing the target protein are pooled. The pool from the GFC column is diluted into a low salt buffer and applied to a prepared Q-HP column. The column is washed with low salt buffer until a stable A280 baseline absorbance is achieved, and eluted using a 20 column volume gradient from 0 mM NaCl to 500 mM NaCl. Again, fractions from the Q-HP column are analyzed by Coomassie stained SDS-PAGE gels, and fractions containing the target protein are pooled. The final pool is dialyzed into a storage buffer containing 50% glycerol and stored at −20° C. The final pool is assayed for activity in the phosphoinostitol kinase assay. […]

mTOR = biological target: T3, mTOR (Homo sapiens, UniProt P42345); experiment: Biochemical assay for m-TOR by TR-FRET; details: read-out: EPK_mTOR/IC50
T3 construct: purchased Invitrogen Corporation (Carlsbad/Calif., USA) PV4753
T3 sequence (P42345 1360-2549 limits assumed): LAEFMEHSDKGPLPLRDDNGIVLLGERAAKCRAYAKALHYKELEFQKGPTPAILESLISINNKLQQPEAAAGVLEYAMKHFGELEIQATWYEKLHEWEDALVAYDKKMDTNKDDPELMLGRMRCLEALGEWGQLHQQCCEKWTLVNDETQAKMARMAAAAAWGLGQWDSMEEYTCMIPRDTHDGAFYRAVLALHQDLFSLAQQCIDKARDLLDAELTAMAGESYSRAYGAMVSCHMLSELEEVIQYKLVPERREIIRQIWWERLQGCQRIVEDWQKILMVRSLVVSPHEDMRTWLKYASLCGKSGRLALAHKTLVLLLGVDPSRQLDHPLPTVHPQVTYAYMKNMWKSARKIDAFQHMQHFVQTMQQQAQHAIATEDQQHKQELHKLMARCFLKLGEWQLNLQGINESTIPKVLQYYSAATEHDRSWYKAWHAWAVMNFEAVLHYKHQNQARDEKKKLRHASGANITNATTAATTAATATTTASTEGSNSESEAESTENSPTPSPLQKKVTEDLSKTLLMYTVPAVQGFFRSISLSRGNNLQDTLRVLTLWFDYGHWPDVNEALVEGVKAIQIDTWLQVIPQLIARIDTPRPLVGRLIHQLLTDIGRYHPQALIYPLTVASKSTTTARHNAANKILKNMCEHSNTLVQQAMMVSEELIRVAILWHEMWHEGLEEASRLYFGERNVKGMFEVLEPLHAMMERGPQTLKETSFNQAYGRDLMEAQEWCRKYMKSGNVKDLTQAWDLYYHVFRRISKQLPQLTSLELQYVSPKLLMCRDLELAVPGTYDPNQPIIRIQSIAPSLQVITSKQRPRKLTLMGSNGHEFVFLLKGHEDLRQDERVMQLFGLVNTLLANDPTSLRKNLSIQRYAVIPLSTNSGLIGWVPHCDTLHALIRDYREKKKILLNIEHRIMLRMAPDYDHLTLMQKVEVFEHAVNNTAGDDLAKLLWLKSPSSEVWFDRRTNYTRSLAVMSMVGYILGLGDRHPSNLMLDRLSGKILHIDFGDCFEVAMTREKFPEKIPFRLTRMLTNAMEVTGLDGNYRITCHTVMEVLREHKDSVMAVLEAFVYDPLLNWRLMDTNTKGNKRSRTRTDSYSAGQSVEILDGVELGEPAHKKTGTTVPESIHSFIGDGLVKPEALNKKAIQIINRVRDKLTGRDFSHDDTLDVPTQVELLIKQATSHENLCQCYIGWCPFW
Protocol: Biochemical Assay for m-TOR by TR-FRET.
Assay components are purchased from Invitrogen Corporation (Carlsbad/Calif., USA): GFP-4EBP1 (Cat. No. PV4759), Tb3+-α-p4EBP1 [pThr46] Antibody (Cat. No. PV4757), proprietary TR-FRET dilution buffer (Cat. No. PV3574), mTOR protein (Cat. No. PV4753).
50 nL of compound dilutions (final concentration of 10, 3.0, 1.0, 0.3, 0.1, 0.03, 0.01 and 0.003 μM) are dispensed onto black 384-well low volume non-binding polystyrene (Cat. No. NBS#3676, Corning, Lowell/Mass., USA). Then 5 μL of ATP (8 μM final concentration) and GFP-4EBP1 (400 nM final concentration) with 5 μL mTOR proteins (0.5 nM final concentration) are incubated at rt. The standard reaction buffer for the TR-FRET mTOR assay contained 50 mM HEPES pH 7.5, 10 mM MnCl2, 50 mM NaCl, 1 mM EGTA, 1 mM DTT. Reactions were stopped with 10 μL of a mixture of EDTA containing the Tb3+-α-p4EBP1[pT46] detection Ab (0.5 nM) in TR-FRET dilution buffer (proprietary to IVG). Plates are read 15 mins later in a Synergy2 reader using an integration time of 0.2 seconds and a delay of 0.1 seconds. Control for the 100% inhibition of the kinase reaction is performed by replacing the mTOR kinase by the standard reaction buffer. The control for the 0% inhibition is given by the solvent vehicle of the compounds (90% DMSO in H2O). A standard compound is used as a reference compound and included in all assay plates in the form of 16 dilution points in duplicate.

PI3K beta = biological target: T4, PI3K beta (Homo sapiens, UniProt P42338); experiment: PI3K beta kinase assay (Kinase-Glo luminescence); format: biochemical; details: read-out: EPK_PI3Kbeta/IC50
T4 construct: for the full-length p110-b subunit are generated and fused by overlapping PCR; His tag (C); made in house; host or cells: baculovirus BV949; Tn5 (Trichoplusia ni) or TiniPro insect cells
T4 sequence (P42338 with tags, fused parts or gaps limits assumed): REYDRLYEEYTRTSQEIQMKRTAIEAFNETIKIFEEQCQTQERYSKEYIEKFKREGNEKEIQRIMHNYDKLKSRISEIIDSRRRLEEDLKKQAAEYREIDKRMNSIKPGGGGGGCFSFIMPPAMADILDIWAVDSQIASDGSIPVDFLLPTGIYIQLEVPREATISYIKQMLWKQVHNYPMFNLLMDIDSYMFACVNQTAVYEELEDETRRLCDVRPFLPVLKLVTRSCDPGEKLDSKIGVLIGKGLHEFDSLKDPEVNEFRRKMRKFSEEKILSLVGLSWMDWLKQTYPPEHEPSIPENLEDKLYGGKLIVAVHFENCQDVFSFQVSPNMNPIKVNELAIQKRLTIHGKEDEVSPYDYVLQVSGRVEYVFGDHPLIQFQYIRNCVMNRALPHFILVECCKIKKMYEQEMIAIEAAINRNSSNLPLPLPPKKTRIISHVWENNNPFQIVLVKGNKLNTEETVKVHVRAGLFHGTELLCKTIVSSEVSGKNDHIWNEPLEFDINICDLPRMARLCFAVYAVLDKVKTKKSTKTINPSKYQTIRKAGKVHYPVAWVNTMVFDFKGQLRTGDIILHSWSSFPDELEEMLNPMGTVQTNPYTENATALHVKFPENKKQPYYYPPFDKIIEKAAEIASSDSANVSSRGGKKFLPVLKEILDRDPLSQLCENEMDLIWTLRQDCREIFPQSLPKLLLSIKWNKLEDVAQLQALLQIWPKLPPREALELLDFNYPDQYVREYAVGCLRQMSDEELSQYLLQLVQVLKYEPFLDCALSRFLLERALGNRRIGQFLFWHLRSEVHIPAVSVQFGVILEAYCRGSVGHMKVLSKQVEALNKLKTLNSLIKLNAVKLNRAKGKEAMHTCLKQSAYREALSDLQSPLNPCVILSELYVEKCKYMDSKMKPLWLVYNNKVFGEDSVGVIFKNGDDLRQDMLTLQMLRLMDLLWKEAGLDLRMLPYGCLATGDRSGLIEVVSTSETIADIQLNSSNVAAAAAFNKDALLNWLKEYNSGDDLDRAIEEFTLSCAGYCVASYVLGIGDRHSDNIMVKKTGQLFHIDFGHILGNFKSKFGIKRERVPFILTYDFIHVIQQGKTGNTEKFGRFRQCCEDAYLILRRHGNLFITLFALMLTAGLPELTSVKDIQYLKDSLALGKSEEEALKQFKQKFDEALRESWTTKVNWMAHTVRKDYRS
Protocol: as §1, §2, §3
PI3Kβ BV-949 p85(iSH2)-Gly linker-r 110b(full-length)-C-term His Tag
PI3K beta is purified in two chromatographic steps: immobilized metal affinity chromatography (IMAC) on a Ni Sepharose resin (GE Healthcare) and gel filtration (GFC) utilizing a Superdex 200 26/60 column (GE Healthcare). All buffers are chilled to 4° C. and lysis is performed chilled on ice. Column fractionation is performed rapidly at room temperature.
as §4

T1 sequence (P42336 with tags, fused parts or gaps limits assumed): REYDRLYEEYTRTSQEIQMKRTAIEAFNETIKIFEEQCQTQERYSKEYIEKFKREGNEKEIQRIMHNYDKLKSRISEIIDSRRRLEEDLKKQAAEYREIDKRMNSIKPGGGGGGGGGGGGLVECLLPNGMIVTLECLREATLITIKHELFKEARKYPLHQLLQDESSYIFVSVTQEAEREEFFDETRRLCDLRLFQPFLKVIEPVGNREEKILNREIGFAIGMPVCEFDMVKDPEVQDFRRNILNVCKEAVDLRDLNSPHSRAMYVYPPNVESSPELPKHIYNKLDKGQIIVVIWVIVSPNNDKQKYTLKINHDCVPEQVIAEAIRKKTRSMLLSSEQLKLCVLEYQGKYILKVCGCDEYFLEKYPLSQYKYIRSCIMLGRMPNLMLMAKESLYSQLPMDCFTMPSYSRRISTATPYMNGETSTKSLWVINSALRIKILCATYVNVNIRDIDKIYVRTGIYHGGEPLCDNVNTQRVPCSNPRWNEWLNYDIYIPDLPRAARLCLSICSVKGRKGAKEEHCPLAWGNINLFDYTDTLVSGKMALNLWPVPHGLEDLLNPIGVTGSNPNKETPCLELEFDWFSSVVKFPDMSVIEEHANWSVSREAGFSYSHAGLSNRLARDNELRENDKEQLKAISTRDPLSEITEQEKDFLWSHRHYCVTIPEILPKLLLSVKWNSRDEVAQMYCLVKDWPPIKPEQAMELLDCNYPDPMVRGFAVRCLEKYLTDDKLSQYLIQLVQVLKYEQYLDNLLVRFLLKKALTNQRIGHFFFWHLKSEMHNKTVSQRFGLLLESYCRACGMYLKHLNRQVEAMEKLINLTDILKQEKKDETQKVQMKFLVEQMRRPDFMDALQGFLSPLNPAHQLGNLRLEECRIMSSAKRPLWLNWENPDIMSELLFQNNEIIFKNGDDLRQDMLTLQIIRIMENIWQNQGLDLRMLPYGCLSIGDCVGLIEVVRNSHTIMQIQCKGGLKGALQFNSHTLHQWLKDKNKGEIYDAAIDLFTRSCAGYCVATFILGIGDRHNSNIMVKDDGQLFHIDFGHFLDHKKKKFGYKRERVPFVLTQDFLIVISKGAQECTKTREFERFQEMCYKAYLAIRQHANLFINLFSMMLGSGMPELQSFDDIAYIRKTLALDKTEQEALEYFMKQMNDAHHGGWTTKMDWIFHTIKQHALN

IC50 (PI3K alfa) [nM] | IC50 (PI3K delta) [nM] | IC50 (mTOR) [nM] | IC50 (PI3K beta) [nM] | Compound
41 | 25 | 36 | 56 | Cc1nc(C(F)(F)F)ccc1-n1c(=O)n(C)c2cnc3ccc(-c4cnc(N)c(CO)c4)cc3c21 [Example 33.5, 8-(6-Amino-5-hydroxymethyl-pyridin-3-yl)-3-methyl-1-(2-methyl-6-trifluoromethyl-pyridin-3-yl)-1,3-dihydro-imidazo[4,5-c]quinolin-2-one]
27 | 10 | 70 | 62 | CNc1ncc(-c2ccc3ncc4c(c3c2)n(-c2ccc(C(F)(F)F)nc2C)c(=O)n4C)cc1COC [Example 33.6, 8-(5-Methoxymethyl-6-methylamino-pyridin-3-yl)-3-methyl-1-(2-methyl-6-trifluoromethyl-pyridin-3-yl)-1,3-dihydro-imidazo[4,5-c]quinolin-2-one]
39 | 21 | 66 | 207 | Cc1nc(N2CC(F)(F)C(F)(F)C2)ccc1-n1c(=O)n(C)c2cnc3ccc(-c4cnc(N)c(CO)c4)cc3c21 [Example 35.4, 8-(6-Amino-5-hydroxymethyl-pyridin-3-yl)-3-methyl-1-[2-methyl-6-(3,3,4,4-tetrafluoro-pyrrolidin-1-yl)-pyridin-3-yl]-1,3-dihydro-imidazo[4,5-c]quinolin-2-one]
14 | 10 | 175 | 48.7 | COc1cc(-c2ccc3ncc4c(c3c2)n(-c2ccc(N3CC(F)(F)C(F)(F)C3)nc2C)c(=O)n4C)cnc1CO [Example 35.3, 8-(6-Hydroxymethyl-5-methoxy-pyridin-3-yl)-3-methyl-1-[2-methyl-6-(3,3,4,4-tetrafluoro-pyrrolidin-1-yl)-pyridin-3-yl]-1,3-dihydro-imidazo[4,5-c]quinolin-2-one]
45 | 18 | 11 | 416 | CCNc1ncc(-c2ccc3ncc4c(c3c2)n(-c2ccc(N3CC[C@@H](O)C3)nc2C)c(=O)n4C)cn1 [Example 34.3, 8-(2-Ethylamino-pyrimidin-5-yl)-1-[6-((R)-3-hydroxy-pyrrolidin-1-yl)-2-methyl-pyridin-3-yl]-3-methyl-1,3-dihydro-imidazo[4,5-c]quinolin-2-one]
49 | 24 | 8 | 339 | CCNc1ncc(-c2ccc3ncc4c(c3c2)n(-c2ccc(N3CC(O)C3)nc2C)c(=O)n4C)cn1 [Example 29.7, 8-(2-Ethylamino-pyrimidin-5-yl)-1-[6-(3-hydroxy-azetidin-1-yl)-2-methyl-pyridin-3-yl]-3-methyl-1,3-dihydro-imidazo[4,5-c]quinolin-2-one]
26 | 11 | 6 | 105 | CNc1ncc(-c2ccc3ncc4c(c3c2)n(-c2ccc(C(C)(C)O)nc2C)c(=O)n4C)cn1 [Example 31.2, 1-[6-(1-Hydroxy-1-methyl-ethyl)-2-methyl-pyridin-3-yl]-3-methyl-8-(2-methylamino-pyrimidin-5-yl)-1,3-dihydro-imidazo[4,5-c]quinolin-2-one]
44 | 20 | 15 | 401 | CCNc1ncc(-c2ccc3ncc4c(c3c2)n(-c2ccc(N3CC[C@H](O)C3)nc2C)c(=O)n4C)cn1 [Example 32.10, 8-(2-Ethylamino-pyrimidin-5-yl)-1-[6-((S)-3-hydroxy-pyrrolidin-1-yl)-2-methyl-pyridin-3-yl]-3-methyl-1,3-dihydro-imidazo[4,5-c]quinolin-2-one]
12 | 7 | 60 | 22 | COCc1cc(-c2ccc3ncc4c(c3c2)n(-c2ccc(C(F)(F)F)nc2C)c(=O)n4C)cnc1N [Example 33.3, 8-(6-Amino-5-methoxymethyl-pyridin-3-yl)-3-methyl-1-(2-methyl-6-trifluoromethyl-pyridin-3-yl)-1,3-dihydro-imidazo[4,5-c]quinolin-2-one]
